What was measured:
[1] = Time course of ionizable cationic lipid (LC-MS) and mRNA (digital PCR) in plasma, spleen, liver; type: in vivo; conditions: mice; for plasma levels of lipid at 7 days: CD8-targeted tLNP F9 (CICL1) or BF1 (ALC-0315)
Protocol: To obtain more detailed data a similar experiment was conducted in mice where it was possible to obtain a time course of disappearance of the ionizable cationic lipid and the encapsulated mRNA as well. Mice were intravenously administered 2 mg/kg tLNP of composition BF1 (comprising ALC-0315) or F9 (comprising CICL1) targeted to mouse CD8 and encapsulating an anti-human CD19 CAR, and monitored through 7 days. At each timepoint, 3 mice were sacrificed, and liver, spleen, and plasma were processed for LC-MS-based detection of lipid concentration and digital PCR detection of the mRNA. In plasma, mRNA level was normalized to a known amount of mRNA spiked in a control. In spleen and liver mRNA level was normalized to mRNA for the housekeeping gene GAPDH.

[2] = Ionizable cationic lipid in plasma, liver and spleen 24 hours after tLNP, LC/MS/MS; type: in vivo, cynomolgus macaques
Protocol: Samples were taken from cynomolgus macaques that had been intravenously administered either BF1 or F5 tLNPs (two each) at a dosage of 3 mg mRNA/kg in the preceding example. The tLNPs were conjugated to anti-CD5 mentioned in Example 2 as the targeting moiety. 24 hours after administration the animals were sacrificed and plasma, liver, and spleen tissue collected from two animals in each group and assessed by mass spectrometry for presence of these ionizable cationic lipids in order to assess biodegradability and biodistribution of these ionizable cationic lipids.
Briefly, plasma was stabilized for mass spectrometry by addition of 10 μL of formic acid per mL of K2EDTA plasma. Spleen and liver tissue were homogenized in 19 parts of homogenization buffer (50:40:10 0.1% formic acid in 1:1 methanol: acetone/10 mM ammonium formate with 0.2% formic acid/dimethylformamide (DMF)) to 1 part tissue (v/w) using a Geno/Grinder® (SPEX® SamplePrep) set to two minutes at 1500 rpms.
Calibration curves and quality control samples were prepared by spiking control matrix (plasma or homogenate) with CICL1 or ALC-0315 in DMF. The extraction was performed on wet ice by adding 300 μL of crashing solvent (0.1% formic acid in 1:1 methanol: acetonitrile) to 25 μL of sample to which 50 μL of internal standard was added (1:1 isopropyl alcohol: water). The extracts were mixed for four minutes at 1500 rpms and then centrifuged at 3000×g for ten minutes. 200 μL of supernatant was transferred to a clean 96 well plate for LC/MS/MS analysis.
Chromatography was performed on a Waters XBridge BEH C8 column (130 Å, 2.5 μm, 2.1×30 mm) using the following gradient. Mobile phase A (10 mM ammonium format in water with 0.2% formic acid) was held at 20% for 0.3 minutes before being reduced to 5% over 1.2 minutes. This condition was held for one minute before being returned to 80% B (0.1% formic acid in 1:1 methanol: acetonitrile) in 0.1 minutes. The column was then held at 80% B for 1.4 minutes. LC flow rate was held at 0.5 mL/min and the autosampler held at 2-8° C. The mass spectrum was obtained with a triple quadrupole apparatus using atmospheric pressure ionization (Sciex).
Quantitation was performed using a 1/X2 quadratic regression using the peak area for transition 1013.6→968.4 (CICL1) or 766.6→748.4 (ALC-0315) over peak area of transition 1040.6→995.4 of the internal standard.

[3] = molecular target: signal regulatory protein a (SIRPα) (Homo sapiens, UniProt P78324); conditions: reported in Rodriguez et al., 2013; cited from earlier work
[4] = 24 hours after BF1 tLNP, 3 mg mRNA/kg

signal regulatory protein a (SIRPα), sequence (P78324 31-504): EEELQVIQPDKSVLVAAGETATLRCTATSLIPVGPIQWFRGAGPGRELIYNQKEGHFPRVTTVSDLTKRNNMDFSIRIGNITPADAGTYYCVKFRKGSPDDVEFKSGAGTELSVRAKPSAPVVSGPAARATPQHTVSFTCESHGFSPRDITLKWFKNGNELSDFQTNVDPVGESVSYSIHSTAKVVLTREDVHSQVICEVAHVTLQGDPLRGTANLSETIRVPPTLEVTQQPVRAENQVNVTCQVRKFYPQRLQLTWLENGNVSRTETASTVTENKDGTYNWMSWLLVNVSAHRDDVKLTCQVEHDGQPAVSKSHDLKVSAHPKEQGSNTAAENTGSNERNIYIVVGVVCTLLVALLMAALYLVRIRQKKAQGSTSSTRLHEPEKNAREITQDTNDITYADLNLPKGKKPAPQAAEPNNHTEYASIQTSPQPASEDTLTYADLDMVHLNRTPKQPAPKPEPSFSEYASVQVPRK

Compound	plasma levels of lipid at 7 days ([1]; 2 mg/kg i.v.)	lipid levels in spleen and liver ([1]; 2 mg/kg i.v., through 7 days)	concentration in liver, fold greater (reference not given) [2, 4]	concentration in spleen, fold greater (reference not given) [2, 4] [fold]	concentration in blood, fold greater than CICL1 ([2]; 24 hours after BF1 versus F5 tLNP, 3 mg mRNA/kg)	time after administration by which lipid levels were falling in the liver ([1]; 2 mg/kg F9 tLNP) [h]	time after administration by which lipid levels were falling in the spleen ([1]; 2 mg/kg F9 tLNP) [h]	concentrations in blood, liver, and spleen relative to each other ([2]; 24 hours after F5 tLNP, 3 mg mRNA/kg) [fold]	amount of lipid present in blood, liver, and spleen ([2]; 24 hours after F5 tLNP, 3 mg mRNA/kg i.v.)	liver concentration, fold less than for ALC-0315 ([2]; 24 hours, 3 mg mRNA/kg)	spleen concentration, fold less than for ALC-0315 ([2]; 24 hours, 3 mg mRNA/kg) [fold]	biodegradability ([2]; clearance data, at least at the initial step)	binding affinity to SIRPα, fold stronger than full-length CD47 protein [3] [fold]
CCCCCCCCC(CCCCCC)C(=O)OCCCCCCN(CCCCO)CCCCCCOC(=O)C(CCCCCC)CCCCCCCC (centres unmarked) [ALC-0315, [(4-Hydroxybutyl)azanediyl]di(hexane-6,1-diyl)bis(2-hexyldecanoate), reference compound]	still detected	remained almost unchanged throughout the 7 days	approximately 14 fold	~11	about 6 fold								
CCCCCCCCC(=O)OCC(COC(=O)CCCCCCCC)CC(=O)OCCN(CCOC(=O)CC(COC(=O)CCCCCCCC)COC(=O)CCCCCCCC)C(=O)OCCN(C)C [CICL1]	returned to baseline					≤ 2	≤ 1	≤ 2	only very small amounts	approximately 127 fold	~35	much more biodegradable than ALC-0315	
NYTCEVTELSREGKTVIELK (SEQ ID NO: 3) [CD47 peptide]													10

Reference: US12311033B2, “Lipid nanoparticle formulations and compositions” (CAPSTAN THERAPEUTICS, INC., priority 2023, dated 2025)
